Activity calls are given as the source filed them. The calls are words filed in the database; no cut-off is given here.
Assays:
[1] = system: MCF7; assay: Induction of cell cycle arrest in human MCF7 cells assessed as accumulation of cells in S phase at 8 uM after 24 hrs by flow cytometry (reference value: 5.55%); assay type: functional
[2] = system: MCF7; assay: Induction of cell cycle arrest in human MCF7 cells assessed as accumulation of cells in G1 phase at 8 uM after 24 hrs by flow cytometry (reference value: 65.58%); assay type: functional
[3] = system: A2780; assay: Anticancer activity against human A2780 cells by SRB method; assay type: functional
[4] = system: MCF7; assay: Induction of apoptosis in human MCF7 cells assessed as caspase-7 activation at 8 uM after 24 hrs by Western blot analysis; assay type: functional, cell-based
[5] = system: MCF7; assay: Induction of cell cycle arrest in human MCF7 cells assessed as accumulation of cells in G2/M phase at 4 uM after 24 hrs by flow cytometry relative to untreated control; assay type: functional
[6] = system: MCF7; assay: Induction of cell cycle arrest in human MCF7 cells assessed as accumulation of cells in G0 phase at 4 uM after 24 hrs by flow cytometry relative to untreated control; assay type: functional
[7] = system: COLO 205; assay: Anticancer activity against human COLO205 cells by SRB method; assay type: functional
[8] = system: MCF7; assay: Anticancer activity against human MCF7 cells assessed as cell death at 2 uM after 24 hrs by MTT assay; assay type: functional
[9] = system: MCF7; assay: Anticancer activity against human MCF7 cells by SRB method; assay type: functional
[10] = system: MCF7; assay: Induction of cell cycle arrest in human MCF7 cells assessed as accumulation of cells in G2/M phase at 4 uM after 24 hrs by flow cytometry (reference value: 25.65%); assay type: functional
[11] = system: MCF7; assay: Induction of cell cycle arrest in human MCF7 cells assessed as accumulation of cells in G0 phase at 2 uM after 24 hrs by flow cytometry relative to untreated control; assay type: functional
[12] = biological target: Tubulin (Homo sapiens) (UniProt P68371+Q9H4B7+P0DPH7+P68366+Q13509+Q71U36+P04350+Q3ZCM7+P07437+P68363+Q9BQE3+Q6PEY2+Q13885+Q9BVA1+Q9BUF5); assay: Inhibition of tubulin polymerization in human MCF7 cells at 2 uM after 24 hrs by FITC-conjugated immunostaining assay; assay type: cell-based
[13] = system: MCF7; assay: Induction of cell cycle arrest in human MCF7 cells assessed as accumulation of cells in S phase at 4 uM after 24 hrs by flow cytometry relative to untreated control; assay type: functional
[14] = system: MCF7; assay: Induction of cell cycle arrest in human MCF7 cells assessed as accumulation of cells in G0 phase at 2 uM after 24 hrs by flow cytometry (reference value: 2.9%); assay type: functional
[15] = system: MCF7; assay: Induction of cell cycle arrest in human MCF7 cells assessed as accumulation of cells in G0 phase at 8 uM after 24 hrs by flow cytometry relative to untreated control; assay type: functional
[16] = system: MCF7; assay: Induction of cell cycle arrest in human MCF7 cells assessed as accumulation of cells in S phase at 8 uM after 24 hrs by flow cytometry relative to untreated control; assay type: functional
[17] = system: MCF7; assay: Inhibition of HDAC3 protein expression in human MCF7 cells at 2 uM after 24 hrs by Western blotting; assay type: functional, cell-based
[18] = system: MCF7; assay: Induction of cell cycle arrest in human MCF7 cells assessed as accumulation of cells in G2/M phase at 8 uM after 24 hrs by flow cytometry relative to untreated control; assay type: functional
[19] = system: MCF7; assay: Induction of cell cycle arrest in human MCF7 cells assessed as accumulation of cells in G1 phase at 4 uM after 24 hrs by flow cytometry relative to untreated control; assay type: functional
[20] = system: MCF7; assay: Induction of cell cycle arrest in human MCF7 cells assessed as accumulation of cells in G1 phase at 4 uM after 24 hrs by flow cytometry (reference value: 65.58%); assay type: functional
[21] = system: MCF7; assay: Induction of cell cycle arrest in human MCF7 cells assessed as accumulation of cells in S phase at 4 uM after 24 hrs by flow cytometry (reference value: 5.55%); assay type: functional
[22] = system: A549; assay: Anticancer activity against human A549 cells by SRB method; assay type: functional
[23] = system: SiHa; assay: Anticancer activity against human SiHa cells by SRB method; assay type: functional
[24] = system: MCF7; assay: Inhibition of HDAC8 protein expression in human MCF7 cells at 2 uM after 24 hrs by Western blotting; assay type: functional, cell-based
[25] = system: KB; assay: Anticancer activity against human KB cells by SRB method; assay type: functional
[26] = system: MCF7; assay: Inhibition of HDAC1 protein expression in human MCF7 cells at 2 uM after 24 hrs by Western blotting; assay type: functional, cell-based
[27] = system: MCF7; assay: Induction of cell cycle arrest in human MCF7 cells assessed as accumulation of cells in G2/M phase at 2 uM after 24 hrs by flow cytometry (reference value: 36.23%); assay type: functional
[28] = system: MCF7; assay: Induction of cell cycle arrest in human MCF7 cells assessed as accumulation of cells in G1 phase at 2 uM after 24 hrs by flow cytometry relative to untreated control; assay type: functional
[29] = system: MCF7; assay: Induction of cell cycle arrest in human MCF7 cells assessed as accumulation of cells in G2/M phase at 8 uM after 24 hrs by flow cytometry (reference value: 25.65%); assay type: functional
[30] = system: MCF7; assay: Induction of cell cycle arrest in human MCF7 cells assessed as accumulation of cells in G0 phase at 4 uM after 24 hrs by flow cytometry (reference value: 3.22%); assay type: functional
[31] = system: MCF7; assay: Induction of cell cycle arrest in human MCF7 cells assessed as accumulation of cells in S phase at 2 uM after 24 hrs by flow cytometry (reference value: 14.87%); assay type: functional
[32] = system: MCF7; assay: Inhibition of HDAC2 protein expression in human MCF7 cells at 2 uM after 24 hrs by Western blotting; assay type: functional, cell-based
[33] = system: MCF7; assay: Induction of cell cycle arrest in human MCF7 cells assessed as accumulation of cells in S phase at 2 uM after 24 hrs by flow cytometry relative to untreated control; assay type: functional
[34] = system: MCF7; assay: Induction of cell cycle arrest in human MCF7 cells assessed as accumulation of cells in G2/M phase at 2 uM after 24 hrs by flow cytometry relative to untreated control; assay type: functional
[35] = system: MCF7; assay: Induction of cell cycle arrest in human MCF7 cells assessed as accumulation of cells in G1 phase at 2 uM after 24 hrs by flow cytometry (reference value: 46%); assay type: functional
[36] = system: MCF7; assay: Induction of cell cycle arrest in human MCF7 cells assessed as accumulation of cells in G1 phase at 8 uM after 24 hrs by flow cytometry relative to untreated control; assay type: functional
[37] = system: MCF7; assay: Induction of apoptosis in human MCF7 cells assessed as PARP-cleavage at 8 uM after 24 hrs by Western blot analysis; assay type: functional, cell-based
[38] = system: MCF7; assay: Induction of cell cycle arrest in human MCF7 cells assessed as accumulation of cells in G0 phase at 8 uM after 24 hrs by flow cytometry (reference value: 3.22%); assay type: functional
[39] = system: ZR-75-1; assay: Anticancer activity against human ZR-75-1 cells by SRB method; assay type: functional
[40] = system: MCF7; assay: Increase in p21 protein level in human MCF7 cells at 2 uM after 24 hrs by Western blotting; assay type: functional, cell-based

SMILES	Activity [1]	Activity [2]	GI50 [3]	Activity [4]	Activity [5]	Activity [6]	GI50 [7]	Activity [8]	GI50 [9]	Activity [10]	Activity [11]	inhibition [12]	Activity [13]	Activity [14]	Activity [15]	Activity [16]	inhibition [17]	Activity [18]	GI50 [23]	GI50 [25]	also measured
COc1cc2c(cc1O)N=C[C@@H]1CCCN1C2=O	4.59%	58.22%	140 nM	Active	11.31%	9.27%	110 nM	Active	170 nM	11.33%	3.14%	inactive	8.56%	3.72%	29.68%	4.53%	Active	8.05%	160 nM	170 nM	Activity [19]: 70.84%; Activity [20]: 69.54%; Activity [21]: 9.57%; GI50 [22]: 160 nM; inhibition [24]: Active; inhibition [26]: Active; Activity [27]: 34.4%; Activity [28]: 55.11%; Activity [29]: 7.15%; Activity [30]: 9.56%; Activity [31]: 8.26%; inhibition [32]: Active; Activity [33]: 8.02%; Activity [34]: 33.79%; Activity [35]: 53.62%; Activity [36]: 57.74%; Activity [37]: Active; Activity [38]: 30.04%
COc1cc2c(cc1OCCCCCCOc1cccc(C(c3c[nH]c4ccccc34)c3c[nH]c4ccccc34)c1)N=C[C@@H]1CCCN1C2=O	–	–	2290 nM	–	–	–	2300 nM	–	2010 nM	–	–	–	–	–	–	–	–	–	30800 nM	30100 nM	–
Oc1cccc(C(c2c[nH]c3ccccc23)c2c[nH]c3ccccc23)c1	9.08%	46.98%	–	Active	36.3%	3.63%	–	Active	–	36.08%	2.8%	Active	9.41%	2.9%	6.03%	10.02%	Active	37.97%	–	–	Activity [19]: 50.56%; Activity [20]: 50.68%; Activity [21]: 9.24%; inhibition [24]: Active; inhibition [26]: Active; Activity [27]: 37%; Activity [28]: 51.23%; Activity [29]: 37.93%; Activity [30]: 4%; Activity [31]: 10.1%; inhibition [32]: Active; Activity [33]: 9.86%; Activity [34]: 36.03%; Activity [35]: 50%; Activity [36]: 45.99%; Activity [37]: Active; Activity [38]: 6%
COc1cc2c(cc1OCCCCOc1ccc(C(c3c[nH]c4ccccc34)c3c[nH]c4ccccc34)cc1)N=C[C@@H]1CCCN1C2=O	–	–	2070 nM	–	–	–	24000 nM	–	180 nM	–	–	–	–	–	–	–	–	–	2490 nM	2300 nM	GI50 [39]: 26500 nM
COc1cc2c(cc1OCCCCCCOc1ccc(C(c3c[nH]c4ccccc34)c3c[nH]c4ccccc34)cc1)N=C[C@@H]1CCCN1C2=O	–	–	2460 nM	–	–	–	–	–	140 nM	–	–	–	–	–	–	–	–	–	–	–	GI50 [22]: 29000 nM
Oc1ccc(C(c2c[nH]c3ccccc23)c2c[nH]c3ccccc23)cc1	8.97%	47.59%	–	Active	35.56%	5.01%	–	Active	–	34.69%	3.16%	Active	9.78%	3%	7.05%	8.99%	Active	37.97%	–	–	Activity [19]: 49.65%; Activity [20]: 50.97%; Activity [21]: 9.34%; inhibition [24]: Active; inhibition [26]: Active; Activity [27]: 34%; Activity [28]: 53.85%; Activity [29]: 36.44%; Activity [30]: 5%; Activity [31]: 9%; inhibition [32]: Active; Activity [33]: 9.26%; Activity [34]: 33.7%; Activity [35]: 54%; Activity [36]: 46.19%; Activity [37]: Active; Activity [38]: 7%
COc1cc2c(cc1OCCCCCOc1cccc(C(c3c[nH]c4ccccc34)c3c[nH]c4ccccc34)c1)N=C[C@@H]1CCCN1C2=O	4.82%	61.55%	180 nM	Active	10.74%	10.7%	160 nM	50%	190 nM	9.08%	2.98%	Active	8.26%	3.47%	24.81%	5.26%	Active	8.99%	2200 nM	2300 nM	Activity [19]: 70.29%; Activity [20]: 71.85%; Activity [21]: 8.67%; inhibition [24]: Active; inhibition [26]: Active; Activity [27]: 42.61%; Activity [28]: 38.86%; Activity [29]: 9.38%; Activity [40]: Active; Activity [30]: 10.4%; Activity [31]: 14.56%; inhibition [32]: Active; Activity [33]: 15.42%; Activity [34]: 42.67%; Activity [35]: 39.36%; Activity [36]: 60.92%; Activity [37]: Active; Activity [38]: 24.25%
COc1cc2c(cc1OCCCCOc1cccc(C(c3c[nH]c4ccccc34)c3c[nH]c4ccccc34)c1)N=C[C@@H]1CCCN1C2=O	–	–	27000 nM	–	–	–	28500 nM	–	2010 nM	–	–	–	–	–	–	–	–	–	–	–	–
COc1cccc2c1C(=O)c1c(O)c3c(c(O)c1C2=O)C[C@@](O)(C(=O)CO)C[C@@H]3O[C@H]1C[C@H](N)[C@H](O)[C@H](C)O1 [DOXORUBICIN]	–	–	< 100 nM	–	–	–	14700 nM	–	< 100 nM	–	–	–	–	–	–	–	–	–	1900 nM	160 nM	GI50 [39]: < 100 nM; GI50 [22]: 13000 nM
